Assay results from ChEMBL document CHEMBL4229384, “Success stories of natural product-based hybrid molecules for multi-factorial diseases” (Eur J Med Chem, 2018).
Converted amounts (≈) assume the structure as drawn.

Legend:
[1] = biological target: Receptor tyrosine-protein kinase erbB-2 (Homo sapiens, UniProt P04626); experiment: Inhibition of HER2 in human MCF-7 cells; format: cell-based
[2] = biological target: T1, Estrogen receptor (Homo sapiens, UniProt P03372); experiment: Inhibition of estrogen receptor in human MCF-7 cells; format: cell-based
T1 sequence (P03372 whole entry): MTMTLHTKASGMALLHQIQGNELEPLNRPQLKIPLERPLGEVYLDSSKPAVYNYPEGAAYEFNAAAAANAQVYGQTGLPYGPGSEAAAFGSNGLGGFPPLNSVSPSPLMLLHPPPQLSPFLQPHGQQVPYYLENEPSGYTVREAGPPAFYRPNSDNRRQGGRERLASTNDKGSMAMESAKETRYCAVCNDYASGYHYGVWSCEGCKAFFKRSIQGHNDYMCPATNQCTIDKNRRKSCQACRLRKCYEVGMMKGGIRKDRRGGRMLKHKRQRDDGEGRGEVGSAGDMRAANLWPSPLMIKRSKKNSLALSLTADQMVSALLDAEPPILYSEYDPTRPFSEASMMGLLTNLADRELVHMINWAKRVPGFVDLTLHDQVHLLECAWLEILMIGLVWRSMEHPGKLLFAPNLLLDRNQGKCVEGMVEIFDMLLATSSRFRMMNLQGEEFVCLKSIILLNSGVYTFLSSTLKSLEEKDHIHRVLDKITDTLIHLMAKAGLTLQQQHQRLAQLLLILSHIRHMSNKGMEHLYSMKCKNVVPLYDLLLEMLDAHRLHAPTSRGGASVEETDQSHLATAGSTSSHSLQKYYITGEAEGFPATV

[3] = biological target: DNA; experiment: Binding affinity to human estrogen receptor DNA assessed as estrogen receptor PCR product formation; format: nucleic-acid assay
[4] = biological target: DNA; experiment: Binding affinity to Ha-ras DNA (unknown origin) assessed as Ha-ras PCR product formation; format: nucleic-acid assay
[5] = Inhibition of bovine brain tubulin polymerization after 10 mins by UV-vis spectrophotometric analysis; set-up: species or system Bos taurus
[6] = test system: Mycobacterium tuberculosis; experiment: Antitubercular activity against Mycobacterium tuberculosis H37Rv; format: functional
[7] = Antiproliferative activity against human MDA435/LCC6 cells; format: functional, cell-based; conditions: MDA-435/LCC6
[8] = biological target: T2, Acetylcholinesterase (Electrophorus electricus, UniProt O42275); experiment: Inhibition of electric eel AChE
T2 sequence (O42275 whole entry): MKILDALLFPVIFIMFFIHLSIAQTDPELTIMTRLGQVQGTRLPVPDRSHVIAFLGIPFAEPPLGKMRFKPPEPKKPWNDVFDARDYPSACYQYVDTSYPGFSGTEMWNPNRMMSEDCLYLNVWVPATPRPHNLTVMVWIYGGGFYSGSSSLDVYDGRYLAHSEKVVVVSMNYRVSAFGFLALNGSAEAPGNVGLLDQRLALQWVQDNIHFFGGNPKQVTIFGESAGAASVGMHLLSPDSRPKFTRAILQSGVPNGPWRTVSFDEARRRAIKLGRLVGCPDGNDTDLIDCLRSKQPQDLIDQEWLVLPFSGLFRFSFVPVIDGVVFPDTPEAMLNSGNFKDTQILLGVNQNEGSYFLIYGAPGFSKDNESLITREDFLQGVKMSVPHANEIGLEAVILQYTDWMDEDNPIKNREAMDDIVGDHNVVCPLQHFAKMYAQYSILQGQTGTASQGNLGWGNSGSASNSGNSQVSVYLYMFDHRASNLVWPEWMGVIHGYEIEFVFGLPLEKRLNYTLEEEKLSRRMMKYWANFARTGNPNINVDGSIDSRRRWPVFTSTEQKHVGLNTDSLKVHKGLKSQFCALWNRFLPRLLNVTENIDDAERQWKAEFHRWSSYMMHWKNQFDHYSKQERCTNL

[9] = biological target: Acetylcholinesterase (Electrophorus electricus) (UniProt O42275); experiment: Potency index, ratio of galantamine IC50 to test compound IC50 for electric eel AChE
Acetylcholinesterase (Electrophorus electricus), sequence (O42275 24-633 limits assumed): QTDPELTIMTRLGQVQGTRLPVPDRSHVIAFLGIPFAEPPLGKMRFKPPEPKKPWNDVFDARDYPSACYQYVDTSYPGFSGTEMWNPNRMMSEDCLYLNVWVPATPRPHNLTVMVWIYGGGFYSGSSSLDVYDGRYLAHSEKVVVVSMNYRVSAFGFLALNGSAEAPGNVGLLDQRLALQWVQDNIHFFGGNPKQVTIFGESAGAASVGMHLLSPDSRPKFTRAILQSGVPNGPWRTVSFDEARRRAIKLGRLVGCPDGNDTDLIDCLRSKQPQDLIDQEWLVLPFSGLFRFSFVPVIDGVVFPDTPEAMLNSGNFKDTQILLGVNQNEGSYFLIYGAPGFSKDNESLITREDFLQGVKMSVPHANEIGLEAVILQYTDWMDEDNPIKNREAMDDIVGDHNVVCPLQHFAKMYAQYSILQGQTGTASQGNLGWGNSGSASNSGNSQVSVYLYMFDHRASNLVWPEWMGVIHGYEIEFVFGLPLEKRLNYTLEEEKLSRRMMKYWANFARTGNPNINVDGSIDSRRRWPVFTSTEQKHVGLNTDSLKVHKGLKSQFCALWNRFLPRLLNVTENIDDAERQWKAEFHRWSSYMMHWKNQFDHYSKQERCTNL

[10] = biological target: T2, Acetylcholinesterase; experiment: Inhibition of electric eel AChE using acetylthiocholine iodide as substrate measured for 120 secs by spectrophotometric analysis
[11] = biological target: T3, Acetylcholinesterase (Bos taurus, UniProt P23795); experiment: Inhibition of bovine erythrocyte AchE using acetylthiocholine iodide as substrate after 15 mins by spectrophotometric analysis
T3 sequence (P23795 whole entry): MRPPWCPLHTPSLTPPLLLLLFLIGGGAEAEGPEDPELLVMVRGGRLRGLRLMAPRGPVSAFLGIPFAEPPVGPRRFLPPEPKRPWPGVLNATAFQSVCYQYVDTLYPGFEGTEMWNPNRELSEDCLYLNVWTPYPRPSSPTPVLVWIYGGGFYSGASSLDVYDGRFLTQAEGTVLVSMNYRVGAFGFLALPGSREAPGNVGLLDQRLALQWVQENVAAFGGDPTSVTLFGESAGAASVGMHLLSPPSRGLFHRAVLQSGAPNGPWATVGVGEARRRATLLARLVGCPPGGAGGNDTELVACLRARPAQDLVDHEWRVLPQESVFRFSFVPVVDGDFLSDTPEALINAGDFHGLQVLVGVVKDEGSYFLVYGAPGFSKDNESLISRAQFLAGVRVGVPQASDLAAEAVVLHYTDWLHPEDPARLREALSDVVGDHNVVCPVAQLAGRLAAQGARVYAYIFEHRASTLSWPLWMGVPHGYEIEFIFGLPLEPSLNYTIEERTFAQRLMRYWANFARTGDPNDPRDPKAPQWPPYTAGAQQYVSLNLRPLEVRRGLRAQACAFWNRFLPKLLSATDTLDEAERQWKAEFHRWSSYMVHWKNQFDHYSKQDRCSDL

[12] = test system: A549; experiment: Cytotoxicity against human A549 cells assessed as reduction in cell viability; format: functional; conditions: read-out: ED50 (the source's name)
[13] = test system: L1210; experiment: Antiproliferative activity against mouse L1210 cells after 2 to 3 days by Coulter counter method; format: functional, cell-based

Receptor tyrosine-protein kinase erbB-2, sequence (P04626 whole entry): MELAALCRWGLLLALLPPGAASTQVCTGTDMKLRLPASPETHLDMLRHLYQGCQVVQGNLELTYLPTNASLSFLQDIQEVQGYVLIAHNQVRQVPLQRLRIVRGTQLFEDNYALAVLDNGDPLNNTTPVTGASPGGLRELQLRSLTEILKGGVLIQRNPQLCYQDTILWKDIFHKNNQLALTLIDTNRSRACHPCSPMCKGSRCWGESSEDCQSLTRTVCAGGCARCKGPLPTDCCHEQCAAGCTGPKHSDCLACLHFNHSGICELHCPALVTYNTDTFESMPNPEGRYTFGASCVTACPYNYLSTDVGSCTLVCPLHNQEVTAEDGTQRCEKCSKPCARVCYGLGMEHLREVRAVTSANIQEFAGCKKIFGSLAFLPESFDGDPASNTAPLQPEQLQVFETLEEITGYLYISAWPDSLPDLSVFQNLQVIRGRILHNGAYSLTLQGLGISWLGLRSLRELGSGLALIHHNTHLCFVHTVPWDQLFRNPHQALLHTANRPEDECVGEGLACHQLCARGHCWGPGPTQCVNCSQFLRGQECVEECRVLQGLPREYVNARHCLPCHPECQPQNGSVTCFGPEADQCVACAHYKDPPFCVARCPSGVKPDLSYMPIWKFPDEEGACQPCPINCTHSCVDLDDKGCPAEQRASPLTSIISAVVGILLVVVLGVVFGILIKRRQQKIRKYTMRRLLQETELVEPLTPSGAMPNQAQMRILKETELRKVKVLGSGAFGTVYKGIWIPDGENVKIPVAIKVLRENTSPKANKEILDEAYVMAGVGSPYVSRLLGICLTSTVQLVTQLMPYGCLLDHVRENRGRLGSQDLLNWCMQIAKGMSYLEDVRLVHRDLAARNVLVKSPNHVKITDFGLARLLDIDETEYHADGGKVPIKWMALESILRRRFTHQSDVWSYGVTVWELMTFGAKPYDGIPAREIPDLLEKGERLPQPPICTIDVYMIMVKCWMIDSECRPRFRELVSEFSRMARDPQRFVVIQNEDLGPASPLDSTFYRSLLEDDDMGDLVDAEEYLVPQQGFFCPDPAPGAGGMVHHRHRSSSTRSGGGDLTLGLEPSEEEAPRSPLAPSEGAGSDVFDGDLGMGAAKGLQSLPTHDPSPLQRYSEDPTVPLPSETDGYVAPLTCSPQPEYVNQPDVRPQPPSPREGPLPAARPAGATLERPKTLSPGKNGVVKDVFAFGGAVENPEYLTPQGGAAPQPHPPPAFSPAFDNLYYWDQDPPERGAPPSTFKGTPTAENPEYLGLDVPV

Structure (SMILES): CO[C@H]1/C=C\C=C(/C)C(=O)NC2=CC(=O)C(NC/C=C/CCC[C@@H]3C[C@H]4[C@@H]5CCc6cc(O)ccc6[C@H]5CC[C@]4(C)[C@H]3O)=C(C[C@@H](C)C[C@H](OC)[C@H](O)[C@@H](C)/C=C(\C)[C@@H]1OC(N)=O)C2=O (stereo in doubt)
- IC50 [1]: 100 nM
- IC50 [2]: 80 nM

Structure (SMILES): COc1cc2c(cc1OCCC(=O)Nc1cc(C(=O)Nc3cc(C(=O)Nc4cc(C(=O)NCCC(=N)N)n(C)c4)n(C)c3)n(C)c1)N=C[C@@H]1CCCN1C2=O
- IC50 [3]: 8000 nM
- IC50 [4]: 8000 nM

Structure (SMILES): COc1cc2c(ccc1=O)[C@H]1CC[C@]3(C)[C@@H](O)CC[C@H]3[C@@H]1CC2
- IC50 [5]: 2100 nM

Structure (SMILES): COC(=O)[C@]1(C)CCC[C@@]2(C)[C@@H]3CC[C@@]4(C)C[C@]3(CC[C@@H]21)C/C4=N\NC(=O)c1cccnc1
- MIC [6]: 10 to 20 µg/mL (≈ 22.1 to 44.3 µM)

Structure (SMILES): CC(=O)O[C@H]1C(=O)[C@@]2(C)[C@H]([C@@H]3OC(=O)c4ccccc4OC/C=C/CC[C@H](NC(=O)OC(C)(C)C)[C@@H](O)C(=O)O[C@@H]4C[C@]3(O)C(C)(C)C1=C4C)[C@]1(OC(C)=O)CO[C@@H]1C[C@@H]2O
- IC50 [7]: 390 nM

Structure (SMILES): COc1ccc2c3c1O[C@H]1C[C@@H](O)C=C[C@]31CC[N+](CCCCCCCCCCN1C(=O)c3ccccc3C1=O)=C2
- IC50 [8]: 22 nM
- Ratio IC50 [9]: 16 to 36

Structure (SMILES): COc1ccc2c3c1O[C@H]1C[C@@H](O)CC[C@@]31CCN(CCCCCCCCN1CC[C@@]34C=C[C@H](O)C[C@@H]3Oc3c(OC)ccc(c34)C1)C2
- IC50 [10]: 230 nM

Structure (SMILES): COC(=O)[C@]1(C)CCC[C@@]2(C)[C@@H]3CC[C@@]4(C)C[C@]3(CC[C@@H]21)C/C4=N\NC(=O)c1ccccn1
- MIC [6]: 10 to 20 µg/mL (≈ 22.1 to 44.3 µM)

Structure (SMILES): C[C@@]12CC[C@@H]3[C@@](CC[C@H]4[C@@]3(C)CCC[C@@]4(C)C(=O)O)(C/C1=N\NC(=O)c1cccnc1)C2
- MIC [6]: 10 to 20 µg/mL (≈ 22.9 to 45.7 µM)

Structure (SMILES): COc1ccc2c3c1O[C@H]1C[C@@H](O)CC[C@@]31CCN(CCCCCCCCCCCC[N+]1=Cc3ccc(OC)c4c3[C@@]3(C=C[C@H](O)C[C@@H]3O4)CC1)C2
- IC50 [10]: 12 nM

Structure (SMILES): CCC1CCC2CC(Cc3nc4ccccc4c(N)c32)C1 (configuration not stated)
- IC50 [11]: 1.15 nM

Structure (SMILES): COc1ccc2c(c1)CC[C@@H]1[C@@H]2CC[C@]2(C)CO[C@@]3(C[C@@H](O)C(CO)=CO3)C[C@@H]12
- EC50 [12]: 23000 nM

Structure (SMILES): Cc1n[nH]c2c(O)cc3c(c12)C(CCl)CN3C(=O)c1cc(C(=O)Nc2cc(C(=O)Nc3cc(C(=O)Nc4cc(C(=O)NCCC(=N)N)n(C)c4)n(C)c3)n(C)c2)n(C)n1 (configuration not stated)
- IC50 [13]: 7400 nM

Structure (SMILES): C[C@@]12CC[C@@H]3[C@@](CC[C@H]4[C@@]3(C)CCC[C@@]4(C)C(=O)O)(C/C1=N\NC(=O)c1ccncc1)C2
- MIC [6]: 10 to 20 µg/mL (≈ 22.9 to 45.7 µM)
